tested on: PKC (mix of isoforms); test: PKC Assay (counter screen); format: biochemical; details: myelin basic protein substrate; read-out: Counter screens IC50 (μM) PKC
Protocol: Each PKC assay consists of the following components:
Final assay concentrations were as follows: 0.25 mM EGTA, 0.4 mM CaCl, 20 mM Tris pH 7.5, 10 mM MgCl, 1 mM 2-mercaptoethanol, 0.32 mg/ml phosphatidylserine, 0.032 mg/ml diacylglycerol, 10 μM ^33P-ATP, 70 μg/ml MBP, 10 ng/ml PKC, 0.1 mg/ml BSA.
Assays are performed using 96 deep well assay plates. In each assay well 10 μl of solvent control or appropriate inhibitor dilution with 5 μl ^33P-ATP (components #5 and #3) were premixed. In a separate tube, a mixture containing equal volumes of components #1, #2, #4, and #6 was prepared. The assay reaction was initiated by adding 35 μL of the components #1, #2, #4, and #6 mixture to wells containing ^33P-ATP and inhibitor. The liquid in the assay wells was thoroughly mixed and the assay reactions incubated for 20 minutes at room temperature. The reactions were stopped by adding 100 mM EDTA (50 μl) and 100 mM sodium pyrophosphate (50 μl) and mixing. Phosphorylated MBP was collected on PVDF membranes in 96 well filter plates and quantitated by scintillation counting.

SMILES | IC50
CN(C)CC(C)(C)CNc1nn2c(-c3ccccc3)nnc2cc1C1CCC1 [Compound 1, N′-(7-Cyclobutyl-3-phenyl-[1,2,4]triazolo[4,3-b]pyridazin-6-yl)-2,2,N,N-tetramethyl-propane-1,3-diamine] | > 40 µM
CN(C)CC(C)(C)CNc1nn2c(-c3cccc(F)c3)nnc2cc1C1CCC1 [Compound 5, N′-(7-Cyclobutyl-3-(3-fluoro-phenyl)-[1,2,4]triazolo[4,3-b]pyridazin-6-yl)-2,2,N,N-tetramethyl-propane-1,3-diamine] | > 40 µM
CN(C)CC(C)(C)CNc1nn2c(-c3cc(F)cc(F)c3)nnc2cc1C1CCC1 [Compound 2, N′-(7-Cyclobutyl-3-(3,5-difluoro-phenyl)-[1,2,4]triazolo[4,3-b]pyridazin-6-yl)-2,2,N,N-tetramethyl-propane-1,3-diamine] | > 40 µM
CN(C)CC(C)(C)CNc1nn2c(-c3ccc(F)c(F)c3)nnc2cc1C1CCC1 [Compound 3, N′-(7-Cyclobutyl-3-(3,4-difluoro-phenyl)-[1,2,4]triazolo[4,3-b]pyridazin-6-yl)-2,2,N,N-tetramethyl-propane-1,3-diamine] | > 40 µM
CN(C)CC(C)(C)CNc1nn2c(-c3ccc(F)cc3)nnc2cc1C1CCC1 [Compound 4, N′-(7-Cyclobutyl-3-(4-fluoro-phenyl)-[1,2,4]triazolo[4,3-b]pyridazin-6-yl)-2,2,N,N-tetramethyl-propane-1,3-diamine] | > 40 µM
